Assay results as given in US7494714B2, “Surfaces that resist the adsorption of biological species” (President & Fellows of Harvard College, priority 2000, dated 2009).
Where two headings read alike, the source gives them in different places. Where a SMILES comes first, the peptide text is derived from it. [ ]: non-standard residue; d: D form. Sar = CNCC(=O)O

Tests used:
lysozyme = lysozyme (Gallus gallus, UniProt P00698); test: SPR adsorption of lysozyme to SAMs / grafted polymer films; assay type: binding; details: for % ML 3 min / dR/dt on: lysozyme; for % Lysoff (percent decrease in adsorbed protein during 10 minute PBS wash) / dR/dton lysozyme (maximum initial rate of adsorption) / % MLlys 3 min / % MLlys 30 min: mixed SAM —CONRR′/—CO2H; for % MLlys 3 min: 1 mg/mL lysozyme flowed 3 min; for % MLlys 30 min: 1 mg/mL lysozyme flowed 30 min
fibrinogen = target: T1, fibrinogen (Bos taurus, UniProt P02672+P02676+P12799); test: SPR adsorption of fibrinogen to SAMs / grafted polymer films; assay type: binding, bovine; details: for % ML 30 min / dR/dt on / % ML 3 min: fibrinogen; for % ML 30 min / dR/dt on / % Fib off: single-component SAMs (a) and mixed SAMs (b); for % ML 3 min: single-component SAMs (a, RSH) and mixed SAMs (b, RNH2); for % Fiboff (percent decrease in adsorbed protein during 10 minute PBS wash) / dR/dton fibrinogen (maximum initial rate of adsorption) / % MLfib 3 min / % MLfib 30 min: mixed SAM —CONRR′/—CO2H; for % MLfib 3 min: 1 mg/mL fibrinogen flowed 3 min, relative to —CONH(CH2)10CH3/—CO2H SAM; for % MLfib 30 min: 1 mg/mL fibrinogen flowed 30 min
T1 sequence (P02672 20-615): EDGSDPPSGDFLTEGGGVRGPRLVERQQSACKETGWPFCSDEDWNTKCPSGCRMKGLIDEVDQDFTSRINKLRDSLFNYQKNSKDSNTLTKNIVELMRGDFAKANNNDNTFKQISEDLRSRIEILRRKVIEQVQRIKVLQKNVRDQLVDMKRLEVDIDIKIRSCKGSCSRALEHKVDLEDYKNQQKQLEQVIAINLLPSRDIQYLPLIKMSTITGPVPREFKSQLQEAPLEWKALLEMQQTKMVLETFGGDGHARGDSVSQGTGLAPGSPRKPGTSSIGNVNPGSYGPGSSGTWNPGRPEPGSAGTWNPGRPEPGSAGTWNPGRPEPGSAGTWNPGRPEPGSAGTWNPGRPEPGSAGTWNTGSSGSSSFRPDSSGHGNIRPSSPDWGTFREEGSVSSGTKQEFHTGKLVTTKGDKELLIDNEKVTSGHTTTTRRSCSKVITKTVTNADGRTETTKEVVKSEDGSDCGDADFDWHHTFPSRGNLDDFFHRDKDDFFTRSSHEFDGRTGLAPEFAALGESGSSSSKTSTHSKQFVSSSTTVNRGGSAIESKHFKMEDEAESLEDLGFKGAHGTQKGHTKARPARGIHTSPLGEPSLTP
T1 sequence (P02676 1-468): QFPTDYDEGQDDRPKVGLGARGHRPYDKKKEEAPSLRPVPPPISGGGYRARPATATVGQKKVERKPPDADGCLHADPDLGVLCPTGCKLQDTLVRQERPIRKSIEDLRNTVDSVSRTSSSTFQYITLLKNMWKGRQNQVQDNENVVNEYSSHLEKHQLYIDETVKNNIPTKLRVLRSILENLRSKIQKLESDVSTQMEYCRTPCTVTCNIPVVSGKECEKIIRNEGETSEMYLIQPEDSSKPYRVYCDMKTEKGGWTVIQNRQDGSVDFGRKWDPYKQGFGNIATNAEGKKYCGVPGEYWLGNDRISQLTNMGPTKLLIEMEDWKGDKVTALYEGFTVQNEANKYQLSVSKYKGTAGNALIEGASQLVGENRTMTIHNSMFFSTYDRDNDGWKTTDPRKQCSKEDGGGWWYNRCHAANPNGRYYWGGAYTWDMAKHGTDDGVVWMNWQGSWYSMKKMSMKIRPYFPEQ
T1 sequence (P12799 25-444): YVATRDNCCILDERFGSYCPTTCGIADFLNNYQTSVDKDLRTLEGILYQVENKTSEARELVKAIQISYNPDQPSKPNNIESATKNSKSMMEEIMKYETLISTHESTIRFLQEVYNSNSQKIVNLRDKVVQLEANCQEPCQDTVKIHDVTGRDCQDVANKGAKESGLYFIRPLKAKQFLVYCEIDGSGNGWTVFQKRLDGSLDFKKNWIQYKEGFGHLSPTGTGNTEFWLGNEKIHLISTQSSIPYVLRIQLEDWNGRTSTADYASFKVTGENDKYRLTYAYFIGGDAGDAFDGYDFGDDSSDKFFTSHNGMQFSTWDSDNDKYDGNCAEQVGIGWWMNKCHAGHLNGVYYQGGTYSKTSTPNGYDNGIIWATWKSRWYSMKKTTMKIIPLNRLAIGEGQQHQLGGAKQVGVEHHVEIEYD

[1] = Contact angle of deionized water under cyclooctane; assay type: physicochemical
[2] = footnote b (30 minutes), single-component SAMs (a) and mixed SAMs (b)
[3] = single-component SAMs (a) and mixed SAMs (b)

Chain of lysozyme (P00698 19-147): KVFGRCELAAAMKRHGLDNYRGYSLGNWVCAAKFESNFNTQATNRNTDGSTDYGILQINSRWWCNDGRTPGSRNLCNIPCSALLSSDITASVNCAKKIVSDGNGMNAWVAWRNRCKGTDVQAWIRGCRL

SMILES	% ML 3 min (lysozyme; [2]) [%]	% ML 3 min (lysozyme; [3]) [%]	dR/dt on (lysozyme; [3]) [RU/sec]	% Lysoff (percent decrease in adsorbed protein during 10 minute PBS wash) (lysozyme) [%]	dR/dton lysozyme (maximum initial rate of adsorption) (lysozyme) [RU/sec]	% MLlys 3 min (lysozyme) [%]	% MLlys 30 min (lysozyme) [%]	% Lys off (lysozyme; [3]) [%]	% ML 30 min (fibrinogen) [%]	dR/dt on (fibrinogen) [RU/sec]	% ML 3 min (fibrinogen) [%]	% Fiboff (percent decrease in adsorbed protein during 10 minute PBS wash) (fibrinogen) [%]	dR/dton fibrinogen (maximum initial rate of adsorption) (fibrinogen) [RU/sec]	% MLfib 3 min (fibrinogen) [%]	% MLfib 30 min (fibrinogen) [%]	% Fib off (fibrinogen) [%]	θco sessile [1] [degrees]	θco sessile ([1]; mixed SAM) [degrees]
C[N+](C)(C)CCN.[Cl-]	–	–	–	95 ± 7	140 ± 40	3.5 ± 0.2	3.9 ± 0.7	–	–	–	–	6.2 ± 1	300 ± 200	17 ± 2	25 ± 4	–	–	31
NCCOCCOCCO [Entry 3b, H(OCH2CH2)3NH2, reference compound]	1	1	85	–	–	–	–	–	2	30	1	–	–	–	–	11	50	–
CN1CCNCC1	–	–	–	170 ± 20	60 ± 40	1.1 ± 0.2	1.0 ± 0.4	–	–	–	–	1.0 ± 0.2	50 ± 30	8.2 ± 1	16 ± 0.2	–	–	49
CNCCN(C)P(=O)(N(C)C)N(C)C	–	–	–	660 ± 15	70 ± 30	0.2 ± 0.2	0.3 ± 0.2	–	–	–	–	19 ± 1	120 ± 20	0.8 ± 0.1	4.3 ± 0.6	–	–	63
CNCCNC	–	–	–	110 ± 5	110 ± 60	4.3 ± 0.1	7.8 ± 0.0	–	–	–	–	7.5 ± 0.4	77 ± 30	4.4 ± 0.8	8.5 ± 0.0	–	–	–
NC[C@H](O)[C@H](O)[C@H](O)[C@@H](O)CO	–	–	–	290 ± 3	970 ± 400	13 ± 7	20 ± 0.3	–	–	–	–	4.8 ± 2	820 ± 500	47 ± 12	68 ± 7	–	–	–
OCCOCCOCCOCCCCCCCCCCCS [Entry 3a, HOEG3(CH2)11SH, reference compound]	0.2	0.2	–	–	–	–	–	–	0.2	–	0.2	–	–	–	–	–	–	–
Nc1ccc(O[C@@H]2O[C@H](CO)[C@@H](O[C@@H]3O[C@H](CO)[C@H](O)[C@H](O)[C@H]3O)[C@H](O)[C@H]2O)cc1	–	–	–	190 ± 16	290 ± 120	3.7 ± 0.1	9.3 ± 0.4	–	–	–	–	7.4 ± 0.4	130 ± 80	17 ± 1.4	32 ± 0.5	–	–	–

Second part, the compound after the results:

% ML 3 min (lysozyme; [2]) [%]	% ML 3 min (lysozyme; [3]) [%]	dR/dt on (lysozyme; [3]) [RU/sec]	% Lysoff (percent decrease in adsorbed protein during 10 minute PBS wash) (lysozyme) [%]	dR/dton lysozyme (maximum initial rate of adsorption) (lysozyme) [RU/sec]	% MLlys 3 min (lysozyme) [%]	% MLlys 30 min (lysozyme) [%]	% Lys off (lysozyme; [3]) [%]	% ML 30 min (fibrinogen) [%]	dR/dt on (fibrinogen) [RU/sec]	% ML 3 min (fibrinogen) [%]	% Fiboff (percent decrease in adsorbed protein during 10 minute PBS wash) (fibrinogen) [%]	dR/dton fibrinogen (maximum initial rate of adsorption) (fibrinogen) [RU/sec]	% MLfib 3 min (fibrinogen) [%]	% MLfib 30 min (fibrinogen) [%]	% Fib off (fibrinogen) [%]	θco sessile [1] [degrees]	θco sessile ([1]; mixed SAM) [degrees]	SMILES
7 ±0.2	8 ±1	440 ±80	400 ± 5	440 ± 80	7.8 ± 1	6.5 ± 0.2	400 ±5	38 ±0.2	120 ±70	17 ±1	12 ± 2	120 ± 70	17 ± 1	38 ± 0.2	12 ±2	45	45	CC(=O)N1CCNCC1
–	–	–	73 ± 15	160 ± 50	8 ± 0.3	12 ± 0.3	–	–	–	–	10 ± 2	200 ± 50	23 ± 1	39 ± 1	–	–	38	O=CN1CCNCC1
–	–	–	72 ± 0.7	100 ± 50	2.1 ± 0.4	6.0 ± 0.5	–	–	–	–	9.6 ± 0.9	45 ± 20	3.8 ± 0.7	11 ± 0.3	–	–	–	C1COCCOCCOCCOCCOCCN1
–	–	–	350 ± 10	590 ± 270	7.2 ± 1	15 ± 1	–	–	–	–	19 ± 0.2	202 ± 80	18 ± 0.5	33 ± 0.5	–	–	–	CN(C)C(=O)CN
–	–	–	150 ± 10	2700 ± 400	31 ± 6	71 ± 5	–	–	–	–	16 ± 1	1400 ± 260	66 ± 0.3	74 ± 0.3	–	–	70	CC(=O)CCN
–	–	–	580 ± 20	530 ± 120	1.4 ± 0.0	5.4 ± 0.3	–	–	–	–	13 ± 1	50 ± 5	14 ± 1	40 ± 2	–	–	–	CC(=O)NCCN
1.1	0.6	70	–	70 ± 30	0.6 ± 0.1	1.1 ± 0.3	–	2.0	60	0.7	–	60 ± 10	0.7 ± 0.1	2.0 ± 0.1	–	–	–	CNCC(=O)N(C)CC(=O)N(C)CC(=O)N(C)C [H(CH3)N(Sar)3N(CH3)2] (H-[Sar]-[Sar]-[Sar]-NMe2)
–	–	–	370 ± 20	1900 ± 400	13 ± 0.3	28 ± 3.7	–	–	–	–	11 ± 0.0	260 ± 70	34 ± 1.1	58 ± 3	–	–	–	N#CCC(N)=C(C#N)C#N
